# Article PMC12311259, “Antifibrotic effects of specific targeting of the 5‐hydroxytryptamine 2B receptor (5‐HT2BR) in murine models and ex vivo models of scleroderma skin” (Arthritis & Rheumatology (Hoboken, N.j.), 2025)
# pIC50, pKi: −log10 of the molar value.
# Tests used:
# [1] = test system: cGvHD-induced pulmonary fibrosis; experiment: Sclerodermatous cGvHD mouse model, pulmonary fibrosis; format: in vivo
# Method: AM1476 was dissolved in sterile distilled water for the ex vivo and in vivo experiments. A concentration of 30 μM was applied for the ex vivo experiment. For the in vivo experiments, 1, 3, or 10 mg/kg was administered orally once or twice daily.
# The B10.D2→BALB/c (H‐2d) minor histocompatibility antigen–mismatched model was performed as described.[9], [10] Briefly, female BALB/c (H‐2d) mice were purchased from Janvier. Male B10.D2 (H‐2d) mice were initially purchased from Jackson Laboratory. All mice were maintained in specific pathogen‐free conditions with sterile pellet food and water and a normal day–night cycle. For isolation of unfractionated bone marrow cells, tibial and femoral bones were prepared under sterile conditions. Phosphate buffered saline (PBS) was used to flush bone marrow cells from bone marrow cavities. Subsequently, bone marrow cells were filtered through 70‐μm nylon meshes (BD Biosciences), followed by erythrocyte hemolysis. The remaining bone marrow cells were kept on ice until transplantation. Transplantation of bone marrow cells and splenocytes was performed as follows: Recipient mice (BALB/c [H‐2d]) eight weeks of age received total body irradiation with 750 cGy. Six hours after irradiation, all BALB/c (H‐2d) recipients received bone marrow from either BALB/c (H‐2d) in a syngeneic transplantation manner or B10.D2 (H‐2d) in an allogeneic transplantation manner. For transplantation, 5 × 10[6] splenocytes and 2 × 10[6] bone marrow cells from donor mice were resuspended in 0.2 mL of PBS and injected via tail veins.[9], [10] […] The outcome of treatment was analyzed seven weeks after transplantation. Eight mice per group were analyzed.
# Skin samples were fixed in 4% formalin for six hours and embedded in paraffin. […] The dermal thickness was quantified on H&E‐stained sections using images captured with a light microscope (Nikon eclipse 80i) at 100‐fold magnification by manually measuring the distance between the epidermal‐dermal junction and the dermal‐subcutaneous fat junction at four sites per mouse.[15], [16] […] Histologic readouts were evaluation of the fibrotic area as the percentage of the total lung area in sirius red–stained sections (two sections per mouse) and quantification of pulmonary changes using the Ashcroft score (four sections per mouse).[17], [18]
# The amount of collagen protein in skin and lung samples was determined by hydroxyproline assay.[19], [20] […] The absorbance was determined at 557 nm with a Spectra MAX 190 microplate spectrophotometer. Absolute values were determined using a standard curved generated with type I collagen (Sigma‐Aldrich).
# [2] = target: T1, human 5-HT2AR (Homo sapiens, UniProt P28223); experiment: Functionality assay, HTRF quantification of IP1 accumulation in CHO-K1 cells; format: cell-based; settings: inhibition of 5-HT (5 nM) induced IP1 response, read-out: IC50, antagonistic activity, human 5-HT2A
# T1 construct: 355250 (IP1); host or cells: CHO-K1
# Method: (§1) The binding profile of AM1476 was evaluated for binding to human 5‐HT2AR, 5‐HT2BR, and 5‐HT2CR in radioligand binding assays using Chinese hamster ovary (CHO‐K1) cells overexpressing human receptors (in vitro assays 271650, 271700, and 271800; Eurofins Panlabs Discovery). AM1476 was evaluated at 0.1, 1, 10, 100, 1,000, and 10,000 nM (5‐HT2BR) or at 1, 10, 100, 1,000, and 10,000 nM (5‐HT2AR and 5‐HT2CR). Human 5‐HT2AR and 5‐HT2BR functionality was measured with homogeneous time‐resolved fluorescence quantification of IP1 accumulation in CHO‐K1 cells (in vitro assays 355250 and 355260). Compounds creating a ≥50% inhibition of 5‐HT (5 nM) induced fluorescence response specified receptor antagonist activity. 5‐HT2CR functionality was assessed with [35S] GTPγS for quantification of bound GTPγS. Compounds creating a ≥50% inhibition of 5‐HT (100 nM) induced [35S] GTPγS binding response specified receptor antagonist activity (in vitro assay 355200). AM1476 was evaluated at 0.1, 0.3, 1, 3, 10, 30, and 300 nM (5‐HT2BR) or 1, 10, 100, 1,000, and 10,000 nM (5‐HT2AR and 5‐HT2CR). […] Mouse 5‐HT2BR functionality was measured in a calcium influx assay (Charles River) in CHO‐KI cells expressing the mouse 5‐HT2BR using a calcium sensitive dye and a fluorescence imaging plate reader (FLIPRTETRA) instrument. AM1476 was evaluated at 0.3, 1, 3, 10, 30, 100, 300, and 1,000 nM.
# [3] = target: T2, Uptake, Dopamine (hu) (Homo sapiens, UniProt Q01959); experiment: Functionality assay, Uptake, Eurofins Panlabs 316010; format: cell-based
# T2 construct: Eurofins Panlabs 316010
# Excerpt: Effects were considered significant if AM1476's mean value was three or more SDs above the vehicle control mean in the agonist assay or three or more SDs below the positive control agonist (5‐nM α‐methylserotonin) mean in the antagonist assay. AM1476 was screened for selectivity against approximately 200 targets using a Eurofins Panlabs Spectrum screen panel including enzymatic and receptor binding assays.
# [4] = cGvHD mice, 28 days repeated oral once daily administration
# Method: After repeated oral administration for 28 days, whole blood was collected from each treatment group 15 minutes, 30 minutes, and 1, 2, 4, 6, 8, and 24 hours after a final morning dose (two animals were used for each time point), and plasma was separated from blood within 30 minutes.
# [5] = target: T3, Mouse 5-HT2BR (Mus musculus, UniProt Q02152); experiment: Calcium influx functionality assay (FLIPR) in CHO-K1 cells expressing mouse 5-HT2BR; format: cell-based; settings: agonist 5 nM α-methylserotonin
# T3 construct: host or cells: CHO-K1
# Method: as §1, with “nM. […]” for “nM.”
# [6] = target: T1, human 5-HT2AR; experiment: Radioligand binding assay, CHO-K1 cells overexpressing human receptor (Eurofins Panlabs); settings: read-out: inhibition constant (Ki), 5-HT2AR
# Method: (§2) The binding profile of AM1476 was evaluated for binding to human 5‐HT2AR, 5‐HT2BR, and 5‐HT2CR in radioligand binding assays using Chinese hamster ovary (CHO‐K1) cells overexpressing human receptors (in vitro assays 271650, 271700, and 271800; Eurofins Panlabs Discovery). AM1476 was evaluated at 0.1, 1, 10, 100, 1,000, and 10,000 nM (5‐HT2BR) or at 1, 10, 100, 1,000, and 10,000 nM (5‐HT2AR and 5‐HT2CR). Human 5‐HT2AR and 5‐HT2BR functionality was measured with homogeneous time‐resolved fluorescence quantification of IP1 accumulation in CHO‐K1 cells (in vitro assays 355250 and 355260). Compounds creating a ≥50% inhibition of 5‐HT (5 nM) induced fluorescence response specified receptor antagonist activity. 5‐HT2CR functionality was assessed with [35S] GTPγS for quantification of bound GTPγS. Compounds creating a ≥50% inhibition of 5‐HT (100 nM) induced [35S] GTPγS binding response specified receptor antagonist activity (in vitro assay 355200). AM1476 was evaluated at 0.1, 0.3, 1, 3, 10, 30, and 300 nM (5‐HT2BR) or 1, 10, 100, 1,000, and 10,000 nM (5‐HT2AR and 5‐HT2CR). A nonlinear least squares regression analysis was used to determine half‐maximal inhibitory concentration (IC50) values. Mouse 5‐HT2BR functionality was measured in a calcium influx assay (Charles River) in CHO‐KI cells expressing the mouse 5‐HT2BR using a calcium sensitive dye and a fluorescence imaging plate reader (FLIPRTETRA) instrument. AM1476 was evaluated at 0.3, 1, 3, 10, 30, 100, 300, and 1,000 nM.
# [7] = target: T4, 5-HT2CR (Homo sapiens, UniProt P28335); experiment: as above; settings: read-out: inhibition constant (Ki), 5-HT2CR
# T4 construct: 355200 (GTPγS); host or cells: CHO-K1
# Method: as §2
# [8] = target: T5, human 5-HT2BR (Homo sapiens, UniProt P41595); experiment: as above; settings: read-out: inhibition constant (Ki), human 5-HT2BR
# T5 construct: 355260 (IP1); host or cells: CHO-K1
# Method: as §2
# [9] = all three doses, vs vehicle-treated mice seven weeks after BMT
# T1 sequence (P28223 whole entry): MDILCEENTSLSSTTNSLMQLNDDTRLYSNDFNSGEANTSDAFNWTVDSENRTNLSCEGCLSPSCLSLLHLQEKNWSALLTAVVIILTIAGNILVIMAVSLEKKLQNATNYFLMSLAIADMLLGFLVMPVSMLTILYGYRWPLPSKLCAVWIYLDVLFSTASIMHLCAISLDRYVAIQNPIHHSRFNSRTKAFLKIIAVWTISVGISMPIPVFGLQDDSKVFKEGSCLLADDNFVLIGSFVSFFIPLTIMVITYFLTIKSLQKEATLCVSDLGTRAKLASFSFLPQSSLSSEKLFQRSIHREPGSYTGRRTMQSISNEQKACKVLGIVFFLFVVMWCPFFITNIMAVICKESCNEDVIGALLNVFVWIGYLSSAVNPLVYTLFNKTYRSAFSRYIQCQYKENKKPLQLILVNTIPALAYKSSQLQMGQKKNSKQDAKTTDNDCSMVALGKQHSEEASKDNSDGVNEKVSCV
# T2 sequence (Q01959 whole entry): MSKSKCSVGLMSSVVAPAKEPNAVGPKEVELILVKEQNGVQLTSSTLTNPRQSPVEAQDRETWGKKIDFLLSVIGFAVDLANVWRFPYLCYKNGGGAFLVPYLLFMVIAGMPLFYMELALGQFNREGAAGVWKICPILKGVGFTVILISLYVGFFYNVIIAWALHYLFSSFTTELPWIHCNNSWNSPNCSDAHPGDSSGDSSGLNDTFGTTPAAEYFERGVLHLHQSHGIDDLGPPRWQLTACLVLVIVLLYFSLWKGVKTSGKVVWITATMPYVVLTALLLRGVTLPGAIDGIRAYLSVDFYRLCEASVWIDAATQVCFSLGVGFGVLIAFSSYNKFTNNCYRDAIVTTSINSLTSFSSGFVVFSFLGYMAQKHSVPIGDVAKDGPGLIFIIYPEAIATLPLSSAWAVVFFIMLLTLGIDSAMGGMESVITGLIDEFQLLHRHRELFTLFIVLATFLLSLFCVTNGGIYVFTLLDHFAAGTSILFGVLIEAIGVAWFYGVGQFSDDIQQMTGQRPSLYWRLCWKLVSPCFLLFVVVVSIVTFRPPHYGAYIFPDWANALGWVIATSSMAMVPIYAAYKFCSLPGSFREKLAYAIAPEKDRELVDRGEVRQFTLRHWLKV
# T4 sequence (P28335 33-458): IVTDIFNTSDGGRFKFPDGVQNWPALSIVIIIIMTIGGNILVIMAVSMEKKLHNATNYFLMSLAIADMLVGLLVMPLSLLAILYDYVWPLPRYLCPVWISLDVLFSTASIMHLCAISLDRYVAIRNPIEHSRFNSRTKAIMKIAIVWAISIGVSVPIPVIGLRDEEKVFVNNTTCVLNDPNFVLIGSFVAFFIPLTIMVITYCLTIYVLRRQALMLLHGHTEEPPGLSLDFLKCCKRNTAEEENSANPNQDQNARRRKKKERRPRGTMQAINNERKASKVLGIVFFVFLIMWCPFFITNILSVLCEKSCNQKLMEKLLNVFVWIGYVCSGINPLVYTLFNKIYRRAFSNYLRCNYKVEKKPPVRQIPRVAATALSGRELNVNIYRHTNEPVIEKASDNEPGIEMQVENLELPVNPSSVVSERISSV
# T5 sequence (P41595 whole entry): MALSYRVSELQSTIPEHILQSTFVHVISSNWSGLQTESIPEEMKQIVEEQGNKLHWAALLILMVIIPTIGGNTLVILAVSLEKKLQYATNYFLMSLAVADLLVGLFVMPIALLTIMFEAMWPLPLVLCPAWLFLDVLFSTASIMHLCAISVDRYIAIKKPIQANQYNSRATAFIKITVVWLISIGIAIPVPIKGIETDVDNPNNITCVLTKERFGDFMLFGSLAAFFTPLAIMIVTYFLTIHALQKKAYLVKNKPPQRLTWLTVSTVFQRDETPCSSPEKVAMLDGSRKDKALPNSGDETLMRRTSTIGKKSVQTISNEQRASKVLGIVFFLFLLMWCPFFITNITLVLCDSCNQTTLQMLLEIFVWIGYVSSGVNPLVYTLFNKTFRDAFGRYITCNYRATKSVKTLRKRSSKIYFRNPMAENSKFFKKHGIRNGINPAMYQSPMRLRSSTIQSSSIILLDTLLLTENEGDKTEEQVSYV
# T3 sequence (Q02152 whole entry): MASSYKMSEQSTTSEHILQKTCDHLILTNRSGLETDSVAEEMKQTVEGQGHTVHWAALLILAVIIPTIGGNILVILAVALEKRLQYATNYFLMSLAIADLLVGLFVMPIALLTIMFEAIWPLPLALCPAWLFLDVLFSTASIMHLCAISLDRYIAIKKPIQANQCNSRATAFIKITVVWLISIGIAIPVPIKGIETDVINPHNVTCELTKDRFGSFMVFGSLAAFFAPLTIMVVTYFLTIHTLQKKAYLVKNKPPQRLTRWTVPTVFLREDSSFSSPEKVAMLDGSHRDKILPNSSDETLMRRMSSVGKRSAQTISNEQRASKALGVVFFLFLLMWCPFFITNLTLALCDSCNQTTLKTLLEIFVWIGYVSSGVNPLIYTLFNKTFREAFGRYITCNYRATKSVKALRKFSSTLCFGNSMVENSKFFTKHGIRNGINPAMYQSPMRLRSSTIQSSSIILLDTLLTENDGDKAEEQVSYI
smiles,measurement,setting,value
C[C@@H]1CN(C(=N)N)N=C1c1ccc(F)cc1O [AM1476],"hydroxyproline levels, lung, vs mice killed three weeks after BMT",[1]; 10 mg/kg qd,below those of mice killed three weeks after BMT
same,Ashcroft scores,[1]; [9],reduced
same,collagen-covered lung area,[1]; [9],reduced
same,"hydroxyproline content, lung",[1]; [9],reduced
same,pIC50,[2],< 5.00
same,IC50,[3],> 30000 nM
same,level of systemic exposure (free plasma concentration) vs IC50 of mouse 5-HT2BR antagonistic activity,[4],exceeded the IC50
same,pIC50,[5],7.94
same,pKi,[6],6.10
same,pKi,[7],7.22
same,pKi,[8],8.22
